As usually defined, the IC50 is the concentration needed to halve the response being measured.

Here are results for 45 compounds from US8629147B2, “Heterocyclic compounds useful in the treatment of neoplastic diseases, inflammatory disorders and immunomodulatory disorders” (ChemBridge Corporation, priority 2005, dated 2014).

Assay [1] concerns the target T1, human IGF1R kinase domain (Homo sapiens, UniProt P08069).
T1 construct: human IGF1R precursor protein corresponding to the amino acids positions 974 through 1293; 6xHis; made in house; host or cells: SF9 insect cells, recombinant baculovirus (Bac-to-Bac System)
The assay is described as follows: IGF1R tyrosine phosphorylation inhibition, Alphascreen phosphotyrosine PT66 assay. The assay is classed as biochemical. The following applies: recombinant kinase domain, 1 hour co-incubation, 20 to 0.1 μM. How it is done:
Inhibition of IGF1R tyrosine phosphorylation was measured in the Alphascreen phosphotyrosine PT66 assay kit (Perkin Elmer Life sciences, Catalog number 6760602) according to the manufacturer's instructions. As a source of enzymatically active IGF1r kinase for this assay, SF9 insect cells were infected with recombinant baculovirus (Bac-to-Bac System, Invitrogen, Carlsbad, Calif.) encoding 6×His-tagged kinase domain portion of human IGF1R precursor protein corresponding to the amino acids positions 974 through 1293 (Abbott et al., 1992, J. Biol. Chem. 267:10759-10763) and recombinant kinase protein was purified to homogeneity using two-step chromatography on immobilized Ni^2+ resin (Ni-NTA) and ion-exchange Q-Sepharose column. Biotinylated poly glu-tyr 4:1 (CIS bio-international, catalog number 61GT0BLA) was used for the kinase substrate. Compounds were serially diluted to give a concentration range from 20 to 0.1 μM and co-incubated with IGF1r kinase, biotinylated peptide substrate and alphascreen components for 1 hour and then read in a Perkin-Elmer alphafusion plate reader. A plot of counts per minute versus log concentration of compounds was fitted to a sigmoidal dose response curve using Graphpad Prism software to generate IC50 values (see FIG. 1 for an example).
On the technique in general: Bead proximity is the source of the signal in Alpha formats.

The test system of assay [2] is NCI-H929 human plasmacytoma cells. The assay is described as follows: CellTiter-Glo luminescent cell viability assay, NCI-H929. The conditions noted are these: 48 hours, 20 to 0.1 μM. The assay is classed as cell-based. How it is done:
(§1) Cell viability of either MCF7 human breast tumor cells (American Type Culture Collection catalog #HTB 22) or NCI-H929 human plasmacytoma cells (ATCC catalog #CRL-9068) was assessed using the Promega CellTiter-Glo luminescent cell viability assay according to manufacturer's instructions. In brief, cells were plated at 10,000 cells per well in a clear bottom white 96 well microtiter plate (Costar catalog #3604) in 100 μL of cell growth medium. Compounds were then added to the cells to give final concentrations of compound ranging from 20 to 0.1 μM. Cells were incubated 48 hours after which 100 μL per well of celltiter-glo reagent was added and luminescence was measured in a BMG polarstar plate luminometer. A plot of counts per minute versus log concentration of compounds was fitted to a sigmoidal dose response curve using Graphpad Prism software to generate IC50 values.
A general note: In ATP-based viability assays light output follows the ATP content of the culture.

In assay [3] the test system is MCF7 human breast tumor cells. The assay is described as follows: CellTiter-Glo luminescent cell viability assay, MCF7. It counts as cell-based. The following applies: 48 hours, 20 to 0.1 μM. How it is done: as §1
The target in assay [4] is T2, recombinant TrkA kinase domain (Homo sapiens, UniProt P04629).
T2 construct: commercial preparation of recombinant TrkA kinase domain; purchased Upstate Cell Signaling 14-571
T2 sequence (P04629 510-781 limits assumed): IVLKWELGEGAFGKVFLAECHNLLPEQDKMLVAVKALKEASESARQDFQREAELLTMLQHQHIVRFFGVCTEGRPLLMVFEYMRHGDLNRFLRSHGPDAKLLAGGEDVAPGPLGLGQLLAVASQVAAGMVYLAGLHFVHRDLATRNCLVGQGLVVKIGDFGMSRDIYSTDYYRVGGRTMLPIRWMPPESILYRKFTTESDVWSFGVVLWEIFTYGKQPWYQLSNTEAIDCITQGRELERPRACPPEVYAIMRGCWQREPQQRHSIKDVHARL
The assay is described as follows: TrkA tyrosine kinase activity inhibition, Alphascreen phosphotyrosine PT66 assay. The conditions noted are these: compounds 10 to 0.005 μM, 1 hour incubation. It counts as biochemical. How it is done: Inhibition of TrkA tyrosine kinase activity was measured using the Alphascreen phosphotyrosine PT66 assay kit (Perkin Elmer Life Sciences, Catalog Number 6760602) according to the manufacturer's instructions. As a source of enzymatically active TrkA kinase for this assay, the commercial preparation of recombinant TrkA kinase domain (Upstate Cell Signaling, Catalog Number 14-571) was used. Biotinylated poly Glu-Tyr 4:1 (CIS bio-international, catalog number 61GT0BLA) was used for the kinase substrate. Compounds were serially diluted to give a concentration range from 10 to 0.005 μM and co-incubated with TrkA kinase, biotinylated peptide substrate and Alphascreen kit components for 1 hour and then read in a Perkin-Elmer Alpha Fusion plate reader. A plot of counts per minute versus log concentration of compounds was fitted to a sigmoidal dose response curve using Graphpad Prism software to generate IC50 values.

T1 sequence (P08069 974-1293): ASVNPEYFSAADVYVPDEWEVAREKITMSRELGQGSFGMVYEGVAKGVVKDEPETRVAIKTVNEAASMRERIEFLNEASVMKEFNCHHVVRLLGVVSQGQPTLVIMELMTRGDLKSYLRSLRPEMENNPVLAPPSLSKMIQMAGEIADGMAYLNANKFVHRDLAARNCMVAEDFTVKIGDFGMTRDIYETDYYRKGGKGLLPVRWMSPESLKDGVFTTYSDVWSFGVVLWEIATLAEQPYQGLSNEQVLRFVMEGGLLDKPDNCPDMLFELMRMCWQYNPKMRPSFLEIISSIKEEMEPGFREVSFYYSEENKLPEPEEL

`CCN(CC)CCOc1ccc(NC(=O)c2cn(-c3ncc4c(n3)-c3ccccc3OC4)nc2N)cc1`: the results for the IC50 in assay [1] and in assay [2] were no more than 5 µM and greater than 25 µM, respectively.

With `CN1CCN(CCc2ccc(NC(=O)c3cn(-c4nccc(-c5ccc(N(C)C)cc5)n4)nc3N)cc2)CC1`, the IC50 in assay [1] is no more than 5 µM; in assay [3], 10 to 15 µM; in assay [2] it was 5 to 10 µM.

For the compound `COc1ccc2c(c1)CCc1cnc(-n3cc(C(=O)NCCc4c[nH]c5ccccc45)c(N)n3)nc1-2`, the IC50 in assay [1] was no more than 5 µM; in assay [3], 5 to 10 µM; in assay [2] it was greater than 25 µM.

For `COc1ccc2c(c1)CCc1cnc(-n3cc(C(=O)NCc4nc5ccccc5[nH]4)c(N)n3)nc1-2`, the IC50 is no more than 5 µM in assay [1], 5 to 10 µM in assay [3] and 5 to 10 µM in assay [2].

Turning to `COc1ccc2c(c1)CCc1cnc(-n3cc(C(=O)Nc4ccc(/C=C/CN5CCN(C)CC5)cc4)c(N)n3)nc1-2`, the IC50 in assay [1] is no more than 5 µM; in assay [3] it was 10 to 15 µM; in assay [2], 5 to 10 µM.

Turning to `COc1ccc2c(c1)CCc1cnc(-n3cc(C(=O)NC4CCN(CCCc5ccncc5)CC4)c(N)n3)nc1-2`, the IC50 in assay [1] was no more than 5 µM; in assay [3], 5 to 10 µM; in assay [2], no more than 5 µM.

`CN1CCN(CCc2ccc(NC(=O)c3cn(-c4ncc5c(n4)-c4cc(Cl)ccc4OC5)nc3N)cc2)CC1`: the IC50 is no more than 5 µM in assay [1], 10 to 15 µM in assay [3] and 5 to 10 µM in assay [2].

With `COc1ccc2c(c1)CCc1cnc(-n3cc(C(=O)Nc4ccc(CCN5CCC(N)CC5)cc4)c(N)n3)nc1-2`, the IC50 in assay [1] is no more than 5 µM; in assay [3] it was greater than 25 µM.

For the compound `COc1ccc2c(c1)CCc1cnc(-n3cc(C(=O)Nc4ccc(CCN5CCN6CCC[C@H]6C5)cc4)c(N)n3)nc1-2`, the 50% inhibitory concentration (IC50) is no more than 5 µM in assay [1], 10 to 15 µM in assay [3] and 5 to 10 µM in assay [2].

Take `CN1CCN(Cc2ccc(NC(=O)c3ccc4[nH]c(-c5cc(Br)ccc5O)nc4c3)cc2)CC1`: the IC50 in assay [1] is no more than 5 µM; in assay [3] it was 10 to 15 µM.

On to `CN1CCN(c2ccc(NC(=O)c3ccc4nc(-c5ccc6ccccc6c5O)[nH]c4c3)cc2)CC1`, for which the results for the IC50 in assay [1], in assay [3] and in assay [2] were no more than 5 µM, 10 to 15 µM and 5 to 10 µM, respectively.

With `COc1ccc2c(c1)CCc1cnc(-n3cc(-c4nc5cc(N6CCN(C)CC6)ccc5[nH]4)c(N)n3)nc1-2`, the figures for the IC50 in assay [1], in assay [3] and in assay [2] were no more than 5 µM, 10 to 15 µM and 5 to 10 µM, respectively.

For the compound `CN1CCN(CCc2ccc(NC(=O)c3ccc4nc(-c5nc6ccccc6[nH]5)[nH]c4c3)cc2)CC1`, the values for the IC50 in assay [1], in assay [3] and in assay [2] were no more than 5 µM, greater than 25 µM and 5 to 10 µM, respectively.

On to `CN1CCN(c2ccc3nc(-c4nc5ccccc5[nH]4)[nH]c3c2)CC1`, for which the IC50 in assay [1] was no more than 5 µM; in assay [3] it was 10 to 15 µM; in assay [2] it was 10 to 15 µM.

Turning to `CN1CCN(c2ccc3nc(-c4cc(-c5ccc(N(C)C)cc5)ccc4O)[nH]c3c2)CC1`, the concentration for half-maximal inhibition (IC50) was no more than 5 µM in assay [1], 10 to 15 µM in assay [3] and 5 to 10 µM in assay [2].

For the compound `CN1CCN(CCc2ccc(NC(=O)c3ccc4nc(-c5cc(-c6cccnc6O)ccc5O)[nH]c4c3)cc2)CC1`, the IC50 in assay [4] was in the range of 0.02 to 0.2 µM.

`COc1ncccc1-c1ccc(O)c(-c2nc3cc(C(=O)NCc4ccc(CN5CCN(C)CC5)cc4)ccc3[nH]2)c1`: in assay [4], the IC50 is greater than 0.2 µM.

Turning to `COc1ncccc1-c1ccc(O)c(-c2nc3ccc(C(=O)NC4CCCC(N)C4)cc3[nH]2)c1` (stereo not drawn), the half-maximal inhibitory concentration (IC50) in assay [4] was greater than 0.2 µM.

`COc1ncccc1-c1ccc(O)c(-c2nc3ccc(C(=O)NCc4ccc5c(c4)CCCN5C)cc3[nH]2)c1`: the IC50 in assay [4] was greater than 0.2 µM.

For `COc1ncccc1-c1ccc(O)c(-c2nc3ccc(C(=O)NCC4CCN(Cc5ccccc5)C4)cc3[nH]2)c1` (stereo not drawn), the IC50 in assay [4] lay within 0.02 to 0.2 µM.

For the compound `COc1ncccc1-c1ccc(O)c(-c2nc3ccc(C(=O)NCCc4c[nH]cn4)cc3[nH]2)c1`, in assay [4], the IC50 was 0.02 to 0.2 µM.

Take `COCCN1CCC(CNC(=O)c2ccc3nc(-c4cc(-c5cccnc5OC)ccc4O)[nH]c3c2)C1` (stereo not drawn): the IC50 in assay [4] was 0.02 to 0.2 µM.

As for `COc1ncccc1-c1ccc(O)c(-c2nc3ccc(C(=O)NCC4CCN(CCO)CC4)cc3[nH]2)c1`, the IC50 in assay [4] is less than 0.02 µM.

For `COc1ncccc1-c1ccc(O)c(-c2nc3ccc(C(=O)NCCC4CCCN4C)cc3[nH]2)c1` (stereo not drawn), the IC50 in assay [4] was 0.02 to 0.2 µM.

As to `COc1ncccc1-c1ccc(O)c(-c2nc3ccc(C(=O)NCCCN4CCCCC4C)cc3[nH]2)c1` (stereo not drawn), in assay [4], the IC50 is less than 0.02 µM.

As to `CCN(CC)CCCNC(=O)c1ccc2nc(-c3cc(-c4cccnc4OC)ccc3O)[nH]c2c1`, in assay [4], the half-inhibitory concentration (IC50) was less than 0.02 µM.

With `COc1ncccc1-c1ccc(O)c(-c2nc3ccc(C(=O)NCC4CCCC(CN)C4)cc3[nH]2)c1` (stereo not drawn), the half-inhibitory concentration (IC50) in assay [4] is greater than 0.2 µM.

Take `COc1ncccc1-c1ccc(O)c(-c2nc3ccc(C(=O)NCCCN4CCN(C)CC4)cc3[nH]2)c1`: the IC50 in assay [4] was greater than 0.2 µM.

With `COc1ncccc1-c1ccc(O)c(-c2nc3ccc(C(=O)NCCCCCN(C)C)cc3[nH]2)c1`, the IC50 in assay [4] is greater than 0.2 µM.

Consider `COc1ncccc1-c1ccc(O)c(-c2nc3ccc(C(=O)Nc4ccc(OCCCN5CCN(C)CC5)cc4)cc3[nH]2)c1`, for which the half-maximal inhibitory concentration (IC50) in assay [4] is greater than 0.2 µM.

As to `COc1ncccc1-c1ccc(O)c(-c2nc3ccc(C(=O)Nc4ccc(OCCN5CCN(C)CC5)cc4)cc3[nH]2)c1`, the IC50 in assay [4] is greater than 0.2 µM.

Regarding `COc1ncccc1-c1ccc(O)c(-c2nc3ccc(C(=O)Nc4ccc(CCN5CCN(c6ccncc6)CC5)cc4)cc3[nH]2)c1`, the IC50 in assay [4] fell in the range of 0.02 to 0.2 µM.

For the compound `COc1ncccc1-c1ccc(O)c(-c2nc3cc(C(=O)NCCc4c[nH]cn4)c(F)cc3[nH]2)c1`, in assay [4], the IC50 was less than 0.02 µM.

In the case of `COC(=O)[C@H](Cc1c[nH]cn1)NC(=O)c1ccc2[nH]c(-c3cc(-c4cccnc4OC)ccc3O)nc2c1`, in assay [4], the IC50 was 0.02 to 0.2 µM.

Turning to `COc1ncccc1-c1ccc(O)c(-c2nc3cc(C(=O)N[C@@H](Cc4c[nH]cn4)C(N)=O)ccc3[nH]2)c1`, the IC50 in assay [4] is less than 0.02 µM.

As to `COc1ncccc1-c1ccc(O)c(-c2nc3cc(C(=O)N[C@H](CO)Cc4c[nH]cn4)ccc3[nH]2)c1`, in assay [4], the half-inhibitory concentration (IC50) is less than 0.02 µM.

`COc1ncccc1-c1ccc(O)c(-c2nc3cc(C(=O)N[C@@H](CO)Cc4c[nH]cn4)ccc3[nH]2)c1`: the 50% inhibitory concentration (IC50) in assay [4] was less than 0.02 µM.

Take `COc1ncccc1-c1ccc(O)c(-c2nc3cc(C(=O)N[C@@H](C)Cc4c[nH]cn4)ccc3[nH]2)c1`: the IC50 in assay [4] is greater than 0.2 µM.

As for `O=C(NCCc1c[nH]cn1)c1cc2nc(-c3cc(-c4cccnc4O)ccc3O)[nH]c2cc1Cl`, the IC50 in assay [4] is less than 0.02 µM.

Regarding `CN1CCN(CCc2ccc(NC(=O)c3cc4nc(-c5cc(-c6cccnc6O)ccc5O)[nH]c4cc3Cl)cc2)CC1`, the IC50 in assay [4] lay in the range of 0.02 to 0.2 µM.

In the case of `COc1cc(O)c(-c2nc3ccc(C(=O)NCCc4c[nH]cn4)cc3[nH]2)cc1-c1cccnc1OC`, the IC50 in assay [4] fell in the range of 0.02 to 0.2 µM.

With `CCN1CCC2(CCN(CCc3ccc(NC(=O)c4ccc5[nH]c(-c6cc(-c7cccnc7O)ccc6O)nc5c4)cc3)C2)C1` (stereo not drawn) [drawing 1792], the IC50 in assay [4] was less than 0.02 µM.

As to `CN1CCCC2(CCCN(CCc3ccc(NC(=O)c4ccc5nc(-c6cc(-c7cccnc7O)ccc6O)[nH]c5c4)cc3)C2)C1` (stereo not drawn) [drawing 1793], in assay [4], the IC50 was greater than 0.2 µM.

Turning to `COc1ncccc1-c1ccc(O)c(-c2nc3ccc(C(=O)NCCCCN4CCCC4)cc3[nH]2)c1` [drawing 1800], in assay [4], the IC50 is less than 0.02 µM.

With `COc1ncccc1-c1ccc(O)c(-c2nc3ccc(C(=O)NCCCCN4CCCC4)cc3[nH]2)c1` [drawing 1807], the IC50 in assay [4] is greater than 0.2 µM.
